Test results from US20240316038A1, “APOL1 INHIBITORS AND METHODS OF USE” (Maze Therapeutics, Inc., priority 2021, published 2024).

Assays:
[1] = biological target: T1, APOL1 G2 (Homo sapiens, UniProt O14791, DEL388-389); test: APOL1 calcium transport inhibition assay (GCaMP6f calcium influx, FLIPR) in HEK T-REx/GCaMP6f/APOL1 G2 K6.3 cells; type: cell-based; details: inhibition of APOL1-mediated calcium influx; geometric mean of at least 2 assay runs, † = single assay run (technical duplicate)
T1 construct: expressed in transfected cells; host or cells: HEK293 T-REx clonal lines: HEK T-REx/GCaMP6f/APOL1 G2 K6.3 in A1, HEK293/T-REx APOL1 G2/clone #2 in A2
T1 sequence (O14791 with tags, fused parts or gaps DEL388-389): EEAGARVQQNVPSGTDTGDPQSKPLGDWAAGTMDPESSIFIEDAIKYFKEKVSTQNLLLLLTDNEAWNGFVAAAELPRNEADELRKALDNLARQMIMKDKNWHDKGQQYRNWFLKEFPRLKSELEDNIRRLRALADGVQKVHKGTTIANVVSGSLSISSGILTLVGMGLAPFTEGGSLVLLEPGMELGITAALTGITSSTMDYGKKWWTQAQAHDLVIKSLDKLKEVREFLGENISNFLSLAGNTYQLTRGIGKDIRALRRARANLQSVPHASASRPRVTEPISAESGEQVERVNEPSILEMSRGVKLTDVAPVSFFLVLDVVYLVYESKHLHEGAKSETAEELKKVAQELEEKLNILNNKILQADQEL
Method in brief: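 HEK293 cells stably expressing GCaMP6f, APOL1 G2 induced 6 h with doxycycline (20 ng/mL added), then washed into Ca2+-free Tyrode's buffer pH 7.4. Compounds (8-point dose response) preincubated 10 min at room temperature, then Ca2+ injected to 5 mM final and influx read on FLIPR. AC50 reported as geometric mean of runs.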

[2] = biological target: T1, APOL1 G2; test: Rescue of HEK293 cell death caused by overexpression of APOL1 (CellTiter-Glo luminescence), HEK293/T-REx APOL1 G2/clone #2; type: cell-based; details: reversal of cell death caused by overexpression of APOL1; geometric mean of at least 2 assay runs, † = single assay run (technical duplicate)
Method in brief: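 Rescue EC50s come from four-parameter logistic fits, geometric mean of at least 2 runs on separate days, each in duplicate. Readout: CellTiter-Glo luminescence after 17 h at 37 °C of 5,000 HEK293/T-REx APOL1 G2 clone #2 cells/well, with 6 ng/mL doxycycline to induce APOL1 and 3-fold serial compound dilutions in 0.5% DMSO.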

AC50 [1] [nM]	SMILES	EC50 [2] [nM]
7010	CN(c1ccc(OC[C@H](O)CN2CCC(c3cccc(Cl)c3)C2)cc1)S(C)(=O)=O (single isomer, unassigned) [Compound 78, N-(4-((R)-3-((S) or (R)-3-(3-chlorophenyl)pyrro-lidin-1-yl)-2-hydroxypropoxy)phe-nyl)-N-methylmethanesulfon-amide]	> 30000
1190	CN(c1ccc(OCC2CN(CCc3cccc(Cl)c3)CCCO2)cc1)S(C)(=O)=O (single isomer, unassigned) [Compound 11, (R) or (S)-N-(4-((4-(3-chlorophenethyl)-1,4-oxazepan-2-yl)methoxy)phenyl)-N-methylmethane-sulfonamide]	1000
511	CN=S(C)(=O)c1ccc(OC[C@@H]2CN(CCc3cc(Cl)cc(C#N)c3)CCN2)cc1 (single isomer, unassigned) [Compound 188, 3-chloro-5-{2-[(3S)-3-({4-[(R or S)-methyl(methyl-imino)oxo-λ^6-sulfanyl]pheno-xy}methyl)piper-azin-1-yl]ethyl}benzo-nitrile]	303
310	C[C@@H]1CN(CCc2cccc(Cl)c2)C[C@@H]1COc1ccc(S(C)(=O)=O)cc1 (single isomer, unassigned) [Compound 151, (3R,4S or 3S, 4R)-1-[2-(3-chlorophenyl)-ethyl]-3-[(4-methanesulfon-ylphenoxy)meth-yl]-4-methyl-pyrrolidine]	1340
10100	CS(=O)(=O)c1ccc(OCC2(O)CCCN(CCc3cccc(Cl)c3)C2)cc1 (single isomer, unassigned) [Compound 5, (R) or (S)-1-(3-chlorophenethyl)-3-((4-(methylsulfonyl)phenoxy)methyl) piperidin-3-ol]	5370
376	C[C@@H]1CN(CC(O)c2cccc(Cl)c2)C[C@H]1COc1ccc(S(C)(=O)=O)cc1 (stereo partly drawn) [Compound 123, 1-(3-chlorophenyl)-2-((3S,4S)-3-methyl-4-((4-(methylsulfonyl)phenoxy)methyl)pyrrolidin-1-yl)ethan-1-ol]	300
6540	CS(=O)(=O)c1ccc(OC[C@@H](O)CNCCc2cccc(Cl)c2)cc1 [Compound 93, (S)-1-((3-chlorophenethyl)a-mino)-3-(4-(methylsulfonyl)phe-noxy)propan-2-ol]	> 30000
907	C[C@@H]1CN(CCc2cccc(Cl)c2)C[C@H]1COc1ccc(S(=O)(=O)CCO)cc1 (single isomer, unassigned) [Compound 113, 2-(4-{[(35,4S or 3R,4R)-1-[2-(3-chlorophenyl)ethyl]-4-methylpyrrolidin-3-yl]methoxy}benzene-sulfonyl)ethan-1-ol]	1070
151	CN(c1ccc(OCC2CCCN(CCc3cccc(Cl)c3)C2)cc1)S(C)(=O)=O (single isomer, unassigned) [Compound 9, (R) or (S)—N-(4-((1-(3-chlorophenethyl)piperidin-3-yl)methoxy)phenyl)-N-methylmethanesulfonamide]	263
682	CN(c1ccc(OC[C@H](O)CNC2(Cc3cccc(Cl)c3)CCOC2)cc1)S(C)(=O)=O (stereo partly drawn) [Compound 92, N-(4-((2R)-3-((3-(3-chlorobenzyl)tetra-hydrofuran-3-yl)amino)-2-hydroxypropoxy)phe-nyl)-N-methylmethanesulfon-amide]	> 9790
1150	C[C@@H]1CN(CCc2cccc(S(F)(F)(F)(F)F)c2)C[C@H]1COc1ccc(S(C)(=O)=O)cc1 [Compound 163, (3S,4S)-3-[(4-methanesulfonylphenoxy)methyl]-4-methyl-1-{2-[3-(pentafluoro-λ^6-sulfanyl)phenyl]ethyl}pyrrolidine]	> 385
704	C[C@@H]1CN(CC(O)c2cccc(C#N)c2)C[C@H]1COc1ccc(S(C)(=O)=O)cc1 (stereo partly drawn) [Compound 126]	560
1080	C[C@@H]1C[C@H](COc2ccc(S(C)(=O)=O)cc2)CN1CC(O)c1cccc(C#N)c1 (single isomer, unassigned) [Compound 117, 3-[(1S or 1R)-1-hydroxy-2-[(2R,4S)-4-[(4-methanesulfonylphenoxy)methyl]-2-methylpyrrolidin-1-yl]ethyl] benzonitrile]	1240
3920	COc1ccccc1CCNC[C@H](O)COc1ccc(N(C)S(C)(=O)=O)cc1 [Compound 98, (S)-N-(4-(2-hydroxy-3-((2-methoxyphenethyl)amino)propoxy)phe-nyl)-N-methylmethanesulfon-amide]	> 20000
2550	CC1CNC(COc2ccc(S(C)(=O)=O)cc2)CN1CCc1cccc(Cl)c1 (single isomer, unassigned) [Compound 212, rac-cis or trans-(2R,5S)-1-[2-(3-chlorophenyl)ethyl]-5-[(4-methanesulfonylphenoxy)methyl]-2-methylpiperazine]	> 14300
215	CS(=O)(=O)CCCS(=O)(=O)c1ccc(OC[C@@H]2CN(CCc3cccc(Cl)c3)CCN2)cc1 [Compound 184, (3S)-1-[2-(3-chlorophenyl)ethyl]-3-{[4-(3-methanesulfonylpropanesulfonyl)phenoxy]methyl}piperazine]	622
334	Cc1ccc(Cl)cc1CCN1CCN[C@H](COc2ccc(S(C)(=O)=O)cc2)C1 [Compound 197, (3S)-1-[2-(5-chloro-2-methylphenyl)ethyl]-3-[(4-methanesulfonylphenoxy)methyl]piperazine]	369
229	C[C@@H]1C[C@H](COc2ccc(S(C)(=O)=O)cc2)CN1CC(O)c1cccc(Cl)c1 (single isomer, unassigned) [Compound 215, (1S) or (1R)-1-(3-chlorophenyl)-2-[(2R,4S)-4-[(4-methanesulfonylphenoxy)methyl]-2-methylpyrrolidin-1-yl]ethan-1-ol]	42.2
1260	CCc1ccccc1CCNC[C@H](O)COc1ccc(N(C)S(C)(=O)=O)cc1 [Compound 100, (S)-N-(4-(3-((2-ethylphenethyl)ami-no)-2-hydroxypropoxy)phe-nyl)-N-methylmethanesulfon-amide]	2730
≤ 253	CS(=O)(=O)c1ccc(OCC2CCCCN(CCc3cccc(Cl)c3)C2)cc1 (stereo not drawn) [Compound 1, 1-(3-chlorophenethyl)-3-((4-(methylsulfonyl)phenoxy)methyl)azepane]	528
936	C[C@@H]1C[C@H](COc2ccc(S(C)(=O)=O)cc2)CN1CC(O)c1cc(C#N)cc(C#N)c1 (single isomer, unassigned) [Compound 118, 5-[(1R or 1S)-1-hydroxy-2-[(2R,4S)-4-[(4-methanesulfonylphenoxy)methyl]-2-methylpyrrolidin-1-ylethyl]benzene-1,3-dicarbonitrile]	4040
< 96.1	C[C@@H]1CN(CCc2cc(F)cc(Cl)c2)C[C@H]1COc1ccc(S(C)(=O)=O)cc1 [Compound 181, (3S,4S)-1-[2-(3-chloro-5-fluorophenyl)ethyl]-3-[(4-methanesulfonylphenoxy)methyl]-4-methylpyrrolidine]	325
3340	CS(=O)(=O)c1ccc(OC[C@H]2CN(CCc3cccc(Cl)c3)CCN2)cc1 [Compound 14, (R)-1-(3-chlorophenethyl)-3-((4-(methylsulfonyl)phenoxy)methyl)piperazine]	> 30000
2480	C[C@@H]1CN(CC(O)c2cccc(C#N)c2)C[C@H]1COc1ccc(S(C)(=O)=O)cc1 (single isomer, unassigned) [Compound 127, 3-[(1S or 1R)-1-hydroxy-2-[(3S,4S)-3-[(4-methanesulfonylphenoxy)methyl]-4-methylpyrrolidin-1-yl]ethyl] benzonitrile]	> 10000
916	CN(c1ccc(OC[C@@H](O)CN2CCC(c3cccc(Cl)c3)C2(C)C)cc1)S(C)(=O)=O (stereo partly drawn) [Compound 68, N-(4-((2S)-3-(3-(3-chlorophenyl)-2,2-dimethylpyrrolidin-1-yl)-2-hydroxypropoxy)phe-nyl)-N-methylmethanesulfon-amide]	591

SMILES	AC50 [1] [nM]	EC50 [2] [nM]
CC(CN1C[C@@H](COc2ccc(S(C)(=O)=O)cc2)[C@H](C)C1)c1cc(Cl)cc(C#N)c1 (stereo partly drawn) [Compound 146, 3-chloro-5-[1-[(3S,4S)-3-[(4-methanesulfon-ylphenoxy)meth-yl]-4-methyl-pyrrolidin-1-yl]-propan-2-yl]-benzonitrile]	937	273
C[C@@H]1CN(CCc2cc(C#N)cc(C#N)c2)C[C@H]1COc1ccc(S(C)(=O)=O)cc1 [Compound 145, 5-{2-[(3S,4S)-3-[(4-methane-sulfonylphen-oxy)methyl]-4-methylpyrroli-din-1-yl]ethyl}-benzene-1,3-dicarbonitrile]	356	243
